Assay: xn = mol fraction of the nth substance listed
Conditions: 101 kPa

CCCC[n+]1ccn(C)c1.F[B-](F)(F)F + O
Conditions	electrical conductivity [S/m]	speed of sound [m/s]
293.15 K, x2 = 0.0964	–	1580.4
293.15 K, x2 = 0.2639	–	1586.2
293.15 K, x2 = 0.3058	1	–
293.15 K, x2 = 0.3901	–	1590.2
293.15 K, x2 = 0.4991	1.67	–
293.15 K, x2 = 0.5121	–	1596.5
293.15 K, x2 = 0.6369	–	1601.7
293.15 K, x2 = 0.7002	3.02	1606.4
293.15 K, x2 = 0.7456	–	1608.6
293.15 K, x2 = 0.7866	–	1609.7
293.15 K, x2 = 0.9	–	1602.3
293.15 K, x2 = 0.9001	4.22	–
293.15 K, x2 = 0.9252	4.41	1593.6
293.15 K, x2 = 0.9496	4.31	1581.6
293.15 K, x2 = 0.9744	3.76	1559.6
298.15 K, x2 = 0.1014	0.595	–
298.15 K, x2 = 0.2639	–	1574.3
298.15 K, x2 = 0.3058	1.18	–
298.15 K, x2 = 0.3901	–	1579.2
298.15 K, x2 = 0.4991	1.97	–
298.15 K, x2 = 0.5121	–	1585.1
298.15 K, x2 = 0.6369	–	1591.6
298.15 K, x2 = 0.7002	3.41	1596.4
298.15 K, x2 = 0.7456	–	1598.6
298.15 K, x2 = 0.7866	–	1600.5
298.15 K, x2 = 0.9	–	1598.5
298.15 K, x2 = 0.9001	4.74	–
298.15 K, x2 = 0.9252	5.3	1592.2
298.15 K, x2 = 0.9744	4.22	1564.4
303.15 K, x2 = 0.0964	–	1557.7
303.15 K, x2 = 0.1014	0.709	–
303.15 K, x2 = 0.2639	–	1563
303.15 K, x2 = 0.3058	1.36	–
303.15 K, x2 = 0.3901	–	1567.7
303.15 K, x2 = 0.4991	2.2	–
303.15 K, x2 = 0.5121	–	1573.8
303.15 K, x2 = 0.6369	–	1581.8
303.15 K, x2 = 0.7002	3.97	1586.6
303.15 K, x2 = 0.7456	–	1590.2
303.15 K, x2 = 0.7866	–	1592.6
303.15 K, x2 = 0.8493	5.68	1595.5
303.15 K, x2 = 0.9001	5.67	–
303.15 K, x2 = 0.9496	5.39	1582.7
303.15 K, x2 = 0.9744	4.9	1567.9
308.15 K, x2 = 0.0964	–	1545.7
308.15 K, x2 = 0.1014	0.848	–
308.15 K, x2 = 0.2639	–	1551
308.15 K, x2 = 0.3058	1.51	–
308.15 K, x2 = 0.3901	–	1556.3
308.15 K, x2 = 0.4991	2.51	–
308.15 K, x2 = 0.5121	–	1561.8
308.15 K, x2 = 0.7866	–	1582.8
308.15 K, x2 = 0.8493	6.09	1587.5
308.15 K, x2 = 0.9	–	1588.3
308.15 K, x2 = 0.9001	6.39	–
308.15 K, x2 = 0.9252	6.6	1586
308.15 K, x2 = 0.9496	6.32	1581.6
308.15 K, x2 = 0.9744	5.08	1570.2
313.15 K, x2 = 0.0964	–	1534.6
313.15 K, x2 = 0.2639	–	1539.6
313.15 K, x2 = 0.3058	1.76	–
313.15 K, x2 = 0.3901	–	1544.9
313.15 K, x2 = 0.4991	2.79	–
313.15 K, x2 = 0.5121	–	1550.6
313.15 K, x2 = 0.6369	–	1559
313.15 K, x2 = 0.7002	4.67	1565
313.15 K, x2 = 0.7456	–	1569.3
313.15 K, x2 = 0.7866	–	1573.2
313.15 K, x2 = 0.9	–	1582.1
313.15 K, x2 = 0.9001	6.94	–
313.15 K, x2 = 0.9252	7.12	1581.6
313.15 K, x2 = 0.9496	6.65	1579.4
318.15 K, x2 = 0.1014	1.12	–
318.15 K, x2 = 0.4991	3.1	–
318.15 K, x2 = 0.5121	–	1539.3
318.15 K, x2 = 0.7002	5.29	1554
318.15 K, x2 = 0.7456	–	1558.4
318.15 K, x2 = 0.7866	–	1562
318.15 K, x2 = 0.8493	7.3	1570.2
318.15 K, x2 = 0.9001	7.66	–
318.15 K, x2 = 0.9252	7.99	1576.4
318.15 K, x2 = 0.9496	7.34	1576.4
318.15 K, x2 = 0.9744	6.16	1571.6
323.15 K, x2 = 0.0964	–	1511.5
323.15 K, x2 = 0.1014	1.37	–
323.15 K, x2 = 0.2639	–	1516.4
323.15 K, x2 = 0.3058	2.3	–
323.15 K, x2 = 0.3901	–	1522.1
323.15 K, x2 = 0.4991	3.31	–
323.15 K, x2 = 0.5121	–	1528
323.15 K, x2 = 0.6369	–	1534.5
323.15 K, x2 = 0.7002	5.74	1542.4
323.15 K, x2 = 0.7456	–	1546.8
323.15 K, x2 = 0.7866	–	1552.2
323.15 K, x2 = 0.9	–	1567.8
323.15 K, x2 = 0.9001	8.59	–
323.15 K, x2 = 0.9252	8.71	1570.5

Source: a compilation of properties of binary mixtures (doi:10.1007/s10953-014-0137-8)
